# Measurements published in patent US9499550B2 (BRISTOL-MYERS SQUIBB COMPANY, priority 2012, dated 2016).
# Where two headings read alike, the source gives them in different places.
# Assays:
# [1] = system: HCV genotype 1a (H77 strain) replicon in HUH-7 cells; test: HCV replicon luciferase reporter assay, genotype 1a; assay type: cell-based; conditions: Hepatitis C virus, Huh-7, 72 h, 3 days incubation
# Method in brief: (§1)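 Replicon inhibition for both genotypes was measured as Renilla luciferase signal (EnduRen, 7.5 μM final, 2 h) after 3-day, 37° C exposure of replicon-bearing HUH-7 cells in 4% FCS DMEM, 0.5% DMSO. The 1b construct carries S1179I; the 1a H77 construct carries P1496L and S2204I. Twenty-point, 3-fold dilutions were fitted four-parametrically for EC50, and CC50 was taken from multiplexed Cell Titer-Blue.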
# [2] = system: HCV genotype 1b (Con1) replicon in HUH-7 cells; test: HCV replicon luciferase reporter assay, genotype 1b; assay type: cell-based; conditions: Hepatitis C virus, Huh-7, 72 h, 3 days incubation
# Method in brief: as §1
# [3] = HCV genotype 1a replicon luciferase, read-out: LE_1a (EC50, range)
# [4] = HCV genotype 1b replicon luciferase, read-out: LE_1b (EC50, range)
# [5] = HCV genotype 1a replicon luciferase assay, range class, read-out: LE_1a (EC50, range)
# [6] = HCV genotype 1b replicon luciferase assay, range class, read-out: LE_1b (EC50, range)
# [7] = HCV genotype 1a replicon luciferase, read-out: LE_1a (EC50)
# [8] = HCV genotype 1b replicon luciferase, read-out: LE_1b (EC50)
smiles,measurement,setting,value
"CC[C@@H]1C[C@H](C)CC/C=C\[C@@H]2C[C@@]2(C(=O)NS(=O)(=O)C2CC2)NC(=O)[C@@H]2C[C@@H](Oc3nccc4c5c(ccc34)OCCO5)CN2C(=O)[C@H]1NC(=O)OC(C)(C)C(F)(F)F [Compound 5338, 1,1,1-trifluoro-2-methylpropan-2-yl((2R,6S,7R,9R,13aS,14aR,16aS,Z)-14a-((cyclopropylsulfonyl)carbamoyl)-2-((2,3-dihydro-[1,4]dioxino[2,3-f]isoquinolin-7-yl)oxy)-7-ethyl-9-methyl-5,16-dioxo-1,2,3,5,6,7,8,9,10,11,13a,14,14a,15,16,16a-hexadecahydrocyclopropa[e]pyrrolo[1,2-a][1,4]diazacyclopentadecin-6-yl)carbamate]",EC50,[1]; [3],< 5.46 nM
same,EC50,[2]; [4],< 5.46 nM
"CC(C)Oc1cc2c(Cl)cccc2c(O[C@@H]2C[C@H]3C(=O)N[C@]4(C(=O)NS(=O)(=O)C5CC5)C[C@H]4/C=C\CC[C@@H](C)C[C@@H](C)[C@H](NC(=O)OC(C)(C)C)C(=O)N3C2)n1 [Compound 1092, tert-butyl ((2R,6S,7R,9R,13aS,14aR,16aS,Z)-2-((5-chloro-3-isopropoxyisoquinolin-1-yl)oxy)-14a-((cyclopropylsulfonyl)carbamoyl)-7,9-dimethyl-5,16-dioxo-1,2,3,5,6,7,8,9,10,11,13a,14,14a,15,16,16a-hexadecahydrocyclopropa[e]pyrrolo[1,2-a][1,4]diazacyclopentadecin-6-yl)carbamate]",EC50,[1]; [5],< 5.46 nM
same,EC50,[2]; [6],< 5.46 nM
"COc1ccc2c(O[C@@H]3C[C@H]4C(=O)N[C@]5(C(=O)NS(=O)(=O)C6CC6)C[C@H]5/C=C\CC[C@@H](C)C[C@@H](C)[C@H](NC(=O)OC(C)(C)C)C(=O)N4C3)nccc2c1 [Compound 1205, tert-butyl ((2R,6S,7R,9R,13aS,14aR,16aS,Z)-14a-((cyclopropylsulfonyl)carbamoyl)-2-((6-methoxyisoquinolin-1-yl)oxy)-7,9-dimethyl-5,16-dioxo-1,2,3,5,6,7,8,9,10,11,13a,14,14a,15,16,16a-hexadecahydrocyclopropa[e]pyrrolo[1,2-a][1,4]diazacyclopentadecin-6-yl)carbamate]",EC50,[1]; [7],0.62 nM
same,EC50,[1]; [3],0.51 to 1 nM
same,EC50,[2]; [8],0.75 nM
same,EC50,[2]; [4],0.51 to 1 nM
"COc1cc2cc(-c3ccc(OC(C)C)cc3)nc(O[C@@H]3C[C@H]4C(=O)N[C@]5(C(=O)NS(=O)(=O)C6(C)CC6)C[C@H]5/C=C\CC[C@H](C)C[C@@H](C)[C@H](NC(=O)OC(C)(C)C(F)(F)F)C(=O)N4C3)c2cc1F [Compound 3185, 1,1,1-trifluoro-2-methylpropan-2-yl((2R,6S,7R,9S,13aS,14aR,16aS,Z)-2-((7-fluoro-3-(4-isopropoxyphenyl)-6-methoxyisoquinolin-1-yl)oxy)-7,9-dimethyl-14a-(((1-methylcyclopropyl)sulfonyl)carbamoyl)-5,16-dioxo-1,2,3,5,6,7,8,9,10,11,13a,14,14a,15,16,16a-hexadecahydrocyclopropa[e]pyrrolo[1,2-a][1,4]diazacyclopentadecin-6-yl)carbamate]",EC50,[1]; [3],4.82 to 103 nM
same,EC50,[2]; [4],4.82 to 103 nM
"CCOc1ccc2nc(C(F)(F)F)c(O[C@@H]3C[C@H]4C(=O)N[C@]5(C(=O)NS(=O)(=O)C6(C)CC6)C[C@H]5/C=C\CC[C@@H](C)C[C@@H](CC)[C@H](NC(=O)OC(C)(C)C)C(=O)N4C3)nc2c1 [Compound 4363, tert-butyl ((2R,6S,7R,9R,13aS,14aR,16aS,Z)-2-((7-ethoxy-3-(trifluoromethyl)quinoxalin-2-yl)oxy)-7-ethyl-9-methyl-14a-(((1-methylcyclopropyl)sulfonyl)carbamoyl)-5,16-dioxo-1,2,3,5,6,7,8,9,10,11,13a,14,14a,15,16,16a-hexadecahydrocyclopropa[e]pyrrolo[1,2-a][1,4]diazacyclopentadecin-6-yl)carbamate]",EC50,[1]; [3],1.01 to 5 nM
same,EC50,[2]; [4],0.1 to 0.5 nM
"CCOc1nnc(O[C@@H]2C[C@H]3C(=O)N[C@]4(C(=O)NS(=O)(=O)C5(C)CC5)C[C@H]4/C=C\CC[C@H](C)C[C@@H](C)[C@H](NC(=O)OC(C)(C)C)C(=O)N3C2)c2ccccc12 [Compound 5028, tert-butyl ((2R,6S,7R,9S,13aS,14aR,16aS,Z)-2-((4-ethoxyphthalazine-1-yl)oxy)-7,9-dimethyl-14a-(((1-methylcyclopropyl)sulfonyl)carbamoyl)-5,16-dioxo-1,2,3,5,6,7,8,9,10,11,13a,14,14a,15,16,16a-hexadecahydrocyclopropa[e]pyrrolo[1,2-a][1,4]diazacyclopentadecin-6-yl)carbamate]",EC50,[1]; [7],6.28 nM
same,EC50,[1]; [3],4.82 to 103 nM
same,EC50,[2]; [8],2.96 nM
same,EC50,[2]; [4],< 5.46 nM
"COc1ccc2c(O[C@@H]3C[C@H]4C(=O)N[C@]5(C(=O)NS(=O)(=O)C6CC6)C[C@H]5/C=C\CC[C@@H](C)C[C@@H](C)[C@H](NC(=O)OC(C)(C)C)C(=O)N4C3)nc(N3CCOCC3)cc2c1 [Compound 3107, tert-butyl ((2R,6S,7R,9R,13aS,14aR,16aS,Z)-14a-((cyclopropylsulfonyl)carbamoyl)-2-((6-methoxy-3-morpholinoisoquinolin-1-yl)oxy)-7,9-dimethyl-5,16-dioxo-1,2,3,5,6,7,8,9,10,11,13a,14,14a,15,16,16a-hexadecahydrocyclopropa[e]pyrrolo[1,2-a][1,4]diazacyclopentadecin-6-yl)carbamate]",EC50,[1]; [5],< 5.46 nM
same,EC50,[2]; [6],< 5.46 nM
"COc1ccc2c(O[C@@H]3C[C@H]4C(=O)N[C@]5(C(=O)NS(=O)(=O)C6(C)CC6)C[C@H]5/C=C\CC[C@@H](C)C[C@@H](C)[C@H](NC(=O)OC(C)(C)C(F)(F)F)C(=O)N4C3)nc(-c3ccc(OC(C)C)c(F)c3)cc2c1 [Compound 3078, 1,1,1-trifluoro-2-methylpropan-2-yl((2R,6S,7R,9R,13aS,14aR,16aS,Z)-2-((3-(3-fluoro-4-isopropoxyphenyl)-6-methoxyisoquinolin-1-yl)oxy)-7,9-dimethyl-14a-(((1-methylcyclopropyl)sulfonyl)carbamoyl)-5,16-dioxo-1,2,3,5,6,7,8,9,10,11,13a,14,14a,15,16,16a-hexadecahydrocyclopropa[e]pyrrolo[1,2-a][1,4]diazacyclopentadecin-6-yl)carbamate]",EC50,[1]; [5],< 5.46 nM
same,EC50,[2]; [6],< 5.46 nM
[2H]C([2H])([2H])C(OC(=O)N[C@@H]1C(=O)N2C[C@H](Oc3nn(CC)c(=O)c4ccccc34)C[C@H]2C(=O)N[C@]2(C(=O)NS(=O)(=O)C3(C)CC3)C[C@H]2/C=C\CC[C@H](C)C[C@H]1C)(C([2H])([2H])[2H])C(F)(F)F [Compound 5054],EC50,[1]; [3],> 87.4 nM
same,EC50,[2]; [4],> 87.4 nM
"C[C@@H]1CC/C=C\[C@@H]2C[C@@]2(C(=O)NS(=O)(=O)C2(CF)CC2)NC(=O)[C@@H]2C[C@@H](Oc3nc4c(c5ccccc35)CCCO4)CN2C(=O)[C@@H](NC(=O)OC(C)(C)C)[C@H](C)C1 [Compound 6042, tert-butyl ((2R,6S,7R,9R,13aS,14aR,16aS,Z)-2-((2,3-dihydro-1H-pyrano[2,3-c]isoquinolin-6-yl)oxy)-14a-(((1-(fluoromethyl)cyclopropyl)sulfonyl)carbamoyl)-7,9-dimethyl-5,16-dioxo-1,2,3,5,6,7,8,9,10,11,13a,14,14a,15,16,16a-hexadecahydrocyclopropa[e]pyrrolo[1,2-a][1,4]diazacyclopentadecin-6-yl)carbamate]",EC50,[1]; [3],1.01 to 5 nM
same,EC50,[2]; [4],0.51 to 1 nM
"C[C@@H]1CC/C=C\[C@@H]2C[C@@]2(C(=O)NS(=O)(=O)C2(CF)CC2)NC(=O)[C@@H]2C[C@@H](Oc3nccc4c5c(ccc34)OCCO5)CN2C(=O)[C@@H](NC(=O)OC(C)(C)C(F)(F)F)[C@H](C)C1 [Compound 5323, 1,1,1-trifluoro-2-methylpropan-2-yl((2R,6S,7R,9R,13aS,14aR,16aS,Z)-2-((2,3-dihydro-[1,4]dioxino[2,3-f]isoquinolin-7-yl)oxy)-14a-(((1-(fluoromethyl)cyclopropyl)sulfonyl)carbamoyl)-7,9-dimethyl-5,16-dioxo-1,2,3,5,6,7,8,9,10,11,13a,14,14a,15,16,16a-hexadecahydrocyclopropa[e]pyrrolo[1,2-a][1,4]diazacyclopentadecin-6-yl)carbamate]",EC50,[1]; [3],< 5.46 nM
same,EC50,[2]; [4],< 5.46 nM
COc1nnc(O[C@@H]2C[C@H]3C(=O)N[C@]4(C(=O)NS(=O)(=O)C5(CF)CC5)C[C@H]4/C=C\CC[C@@H](C)C[C@@H](C)[C@H](NC(=O)OC(C)(C)C(F)(F)F)C(=O)N3C2)c2ccccc12 [Compound 5027],EC50,"[1]; GETYPE1A, HCV genotype 1a replicon luciferase, read-out: LE_1a (EC50, range)",< 5.46 nM
same,EC50,"[2]; GETYPE1B, HCV genotype 1b replicon luciferase, read-out: LE_1b (EC50, range)",< 5.46 nM
"COCCOc1cnc(O[C@@H]2C[C@H]3C(=O)N[C@]4(C(=O)NS(=O)(=O)C5(C)CC5)C[C@H]4/C=C\CC[C@@H](C)C[C@@H](C)[C@H](NC(=O)OC(C)(C)C(F)(F)F)C(=O)N3C2)c2ccc(OC)cc12 [Compound 1145, 1,1,1-trifluoro-2-methylpropan-2-yl((2R,6S,7R,9R,13aS,14aR,16aS,Z)-2-((6-methoxy-4-(2-methoxyethoxyl)isoquinolin-1-yl)oxy)-7,9-dimethyl-14a-(((1-methylcyclopropyl)sulfonyl)carbamoyl)-5,16-dioxo-1,2,3,5,6,7,8,9,10,11,13a,14,14a,15,16,16a-hexadecahydrocyclopropa[e]pyrrolo[1,2-a][1,4]diazacyclopentadecin-6-yl)carbamate]",EC50,[1]; [5],< 5.46 nM
same,EC50,[2]; [6],< 5.46 nM
